Values of other authors in PubChem BioAssay AID1259409 (Chemical Carcinogenesis Research Information System (CCRIS), 2018).

System: rodent chemically induced tumor inhibition, incidence and multiplicity
Assay: CCRIS tumor inhibitor studies

In the case of CCc1cccc2c3c([nH]c12)C(CC)(CC(=O)O)OCC3 (configuration not stated), the “tumour outcome (control, treated, inhibition, significance)” value (Carcinogen: N-NITROSOBIS(2-HYDROXYPROPYL)AMINE, 53609-64-6, Dose [Inhibitor]: 0, 0.015% IN DIET FOR 8 WK BEGINNING POST CARCINOGEN TREATMENT (STUDY DURATION: 20 WK), Route [Inhibitor]: ORAL, Species: RAT, Strain/Sex: WISTAR/MALE, Target Tissue: Type of Lesion: LUNG: ADENOCARCINOMA, Dose [Carcinogen]: 2,000 PPM IN DRINKING WATER FOR 12 WK, Promoter: NONE) is given as 60%, 46%, 23%, not calculated, the “tumour outcome (control, treated, inhibition, significance)” value (Carcinogen: N-NITROSOBIS(2-HYDROXYPROPYL)AMINE, 53609-64-6, Dose [Inhibitor]: 0, 0.015% IN DIET FOR 8 WK BEGINNING POST CARCINOGEN TREATMENT (STUDY DURATION: 20 WK), Route [Inhibitor]: ORAL, Species: RAT, Strain/Sex: WISTAR/MALE, Target Tissue: Type of Lesion: LUNG: SQUAMOUS CELL CARCINOMA, Dose [Carcinogen]: 2,000 PPM IN DRINKING WATER FOR 12 WK, Promoter: NONE) is given as 20%, 0%, 100%, not calculated and the “tumour outcome (control, treated, inhibition, significance)” value (Carcinogen: N-NITROSOBIS(2-OXOPROPYL)AMINE [60599-38-4], Dose [Inhibitor]: 10 MG/KG BW ORALLY 3X A WEEK FOR 18 WK (STUDY DURATION: 22 WK), Route [Inhibitor]: ORAL, Species: HAMSTER, Strain/Sex: SYRIAN GOLDEN/FEMALE WITH BILIOENTEROSTOMY, Target Tissue: Type of Lesion: BILE DUCT: ADENOMA, Dose [Carcinogen]: 10 MG/KG BW EVERY 2 WK FOR 18 WK (STUDY DURATION: 22 WK)) is given as 15/17 (88%), 11/18 (61%), 31%, not significant. For the same molecule, the “tumour outcome (control, treated, inhibition, significance)” value (Carcinogen: N-NITROSOBIS(2-OXOPROPYL)AMINE [60599-38-4], Dose [Inhibitor]: 10 MG/KG BW ORALLY 3X A WEEK FOR 18 WK (STUDY DURATION: 22 WK), Route [Inhibitor]: ORAL, Species: HAMSTER, Strain/Sex: SYRIAN GOLDEN/FEMALE WITH BILIOENTEROSTOMY, Target Tissue: Type of Lesion: BILE DUCT: CARCINOMA, Dose [Carcinogen]: 10 MG/KG BW EVERY 2 WK FOR 18 WK (STUDY DURATION: 22 WK)) was 15/17 (88%), 6/18 (33%), 63%, p< 0.01.
For O=C(O)[C@@H]1CCCN1 (tested in a mixture with another compound), the “tumour outcome (control, treated, inhibition, significance)” value (Carcinogen: N-NITROSODIETHYLAMINE, 55-18-5, Dose [Inhibitor]: 0, 50 MG/KG 2/WK 1 HR PRIOR TO AND 24 HR POST CARCINOGEN TREATMENT FOR 10 WK (STUDY DURATION: 28 WK), Route [Inhibitor]: INTRAPERITONEAL, Species: RAT, Strain/Sex: BD-6/MALE, Target Tissue: Type of Lesion: LIVER: TUMOR, Dose [Carcinogen]: 80 MG/KG 1/WK FOR 10 WK, Promoter: NONE USED) is given as 22/23 (96%), 5/23 (22%), 77%, p<0.001, the “tumour outcome (control, treated, inhibition, significance)” value (Carcinogen: N-NITROSODIETHYLAMINE, 55-18-5, Dose [Inhibitor]: 0, 100 MG/KG 2/WK 1 HR PRIOR TO AND 24 HR POST CARCINOGEN TREATMENT FOR 10 WK (STUDY DURATION: 28 WK), Route [Inhibitor]: INTRAPERITONEAL, Species: RAT, Strain/Sex: BD-6/MALE, Target Tissue: Type of Lesion: LIVER: TUMOR, Dose [Carcinogen]: 80 MG/KG 1/WK FOR 10 WK, Promoter: NONE USED) is given as 22/23 (96%), 9/21 (43%), 55%, p<0.001 and the “tumour outcome (control, treated, inhibition, significance)” value (Carcinogen: N-NITROSODIETHYLAMINE, 55-18-5, Dose [Inhibitor]: 0, 100 MG/KG 2/WK 1 HR PRIOR TO AND 24 HR POST CARCINOGEN TREATMENT FOR 10 WK (STUDY DURATION: 40 WK), Route [Inhibitor]: INTRAPERITONEAL, Species: RAT, Strain/Sex: BD-6/MALE, Target Tissue: Type of Lesion: LIVER: TUMOR, Dose [Carcinogen]: 80 MG/KG 1/WK FOR 10 WK, Promoter: NONE USED) is given as 22/23 (96%), 8/20 (40%), 58%, not calculated.
For O=C1CC[C@@]2(O)[C@H]3Cc4ccc(O)c5c4[C@@]2(CCN3CC2CC2)[C@H]1O5, the “tumour outcome (control, treated, inhibition, significance)” value (Carcinogen: 7,12-DIMETHYLBENZ[A]ANTHRACENE, 57-97-6, Dose [Inhibitor]: 0, 75 MG/KG DIET FOR 20 D BEGINNING 10 D PRIOR TO CARCINOGEN DOSE (STUDY DURATION: 130 D), Route [Inhibitor]: ORAL, Species: RAT, Strain/Sex: SPRAGUE-DAWLEY/FEMALE, Target Tissue: Type of Lesion: MAMMARY GLAND: TUMOR, Dose [Carcinogen]: 15 MG IN 0.1 ML OF SESAME OIL ONCE, Promoter: NONE USED) is given as 100%, 73%, 27%, not significant, the “tumour outcome (control, treated, inhibition, significance)” value (Carcinogen: 7,12-DIMETHYLBENZ[A]ANTHRACENE, 57-97-6, Dose [Inhibitor]: 0, 75 MG/KG DIET FOR 109 D BEGINNING 11 D POST CARCINOGEN DOSE (STUDY DURATION: 130 D), Route [Inhibitor]: ORAL, Species: RAT, Strain/Sex: SPRAGUE-DAWLEY/FEMALE, Target Tissue: Type of Lesion: MAMMARY GLAND: TUMOR, Dose [Carcinogen]: 15 MG IN 0.1 ML OF SESAME OIL ONCE, Promoter: NONE USED) is given as 92%, 36%, 61%, p=0.0024 and the “tumour outcome (control, treated, inhibition, significance)” value (Carcinogen: 7,12-DIMETHYLBENZ[A]ANTHRACENE, 57-97-6, Dose [Inhibitor]: 0, 75 MG/KG DIET FOR 130 D BEGINNING 10 D PRIOR TO CARCINOGEN DOSE (STUDY DURATION: 130 D), Route [Inhibitor]: ORAL, Species: RAT, Strain/Sex: SPRAGUE-DAWLEY/FEMALE, Target Tissue: Type of Lesion: MAMMARY GLAND: TUMOR, Dose [Carcinogen]: 15 MG IN 0.1 ML OF SESAME OIL ONCE, Promoter: NONE USED) is given as 83%, 46%, 45%, p=0.053. The “tumour outcome (control, treated, inhibition, significance)” value (Carcinogen: DIMETHYLBENZ[A]ANTHRACENE, 57-97-6, Dose [Inhibitor]: 0, 1 MG/KG/D ADMINISTERED TO RESTRAINT-STRESSED RATS BEGINNING 2 DAYS POST CARCINOGEN DOSE AND CONTINUING FOR 18 WK (STU, Route [Inhibitor]: INTRAPERITONEAL, Species: RAT, Strain/Sex: F344/FEMALE, Target Tissue: Type of Lesion: MAMMARY GLAND: TUMOR, Dose [Carcinogen]: 15 MG/ML SESAME OIL ONCE, Promoter: NONE USED) was 32%, 12%, 63%, not calculated and the “tumour outcome (control, treated, inhibition, significance)” value (Carcinogen: DIMETHYLBENZ[A]ANTHRACENE, 57-97-6, Dose [Inhibitor]: 0, 1 MG/KG/D BEGINNING 2 DAYS POST CARCINOGEN DOSE AND CONTINUING FOR 18 WK (STUDY DURATION: 18 WK), Route [Inhibitor]: INTRAPERITONEAL, Species: RAT, Strain/Sex: F344/FEMALE, Target Tissue: Type of Lesion: MAMMARY GLAND: TUMOR, Dose [Carcinogen]: 15 MG/ML SESAME OIL ONCE, Promoter: NONE USED) was 27%, 15%, 44%, not calculated.
